Tests used:
[1] = Crystal form stability study (influencing factor experiments); type: physicochemical; conditions: for Physical and chemical properties (conclusion of influencing factor experiments): high temperatures and high humidities for 30 days
Experimental: Samples of the crystal forms A, B, C, I, J, and K of the compound represented by formula (I) were taken, spread in open containers, and left to stand under conditions of light exposure (4500 Lux), high temperatures (40° C. and 60° C.), and high humidities (RH 75% and RH 92.5%) for 30 days to investigate their stability, and the results are shown in Table 16.

[2] = Long-term/accelerated stability; type: physicochemical
[3] = 40° C., 10 days, open container
[4] = 40° C., 30 days, open container
[5] = 60° C., 10 days, open container
[6] = 60° C., 30 days, open container
[7] = 75% RH, 10 days, open container
[8] = 75% RH, 30 days, open container
[9] = 92.5% RH, 5 days, open container
[10] = 92.5% RH, 10 days, open container
[11] = 92.5% RH, 30 days, open container
[12] = light exposure (4500 Lux), 5 days, open container
[13] = light exposure (4500 Lux), 10 days, open container
[14] = light exposure (4500 Lux), 30 days, open container

CCc1c(F)ccc2cc(O)cc(-c3nc4c5c(nc(OC[C@@]67CCCN6C[C@H](F)C7)nc5c3F)N3C[C@H]5CC[C@H](N5)[C@H]3CO4)c12 [Crystal form K, 5-Ethyl-6-fluoro-4-((5aS,6S,9R)-1-fluoro-12-(((2R,7aS)-2-fluorotetrahydro-1H-pyrrolizin-7a(5H)-yl)methoxy)-5a,6,7,8,9,10-hexahydro-5H-4-oxa-3,10a,11,13,14-pentaaza-6,9-methanonaphtho[1,8-ab]heptalen-2-yl)naphthalen-2-ol]
Color and state ([1]; 40° C., 5 days, open container): Off-white solid | Crystal form ([1]; 40° C., 5 days, open container): Did not change | Purity % ([1]; 40° C., 5 days, open container): 99.2% | Color and state [1, 3]: Off-white solid | Crystal form [1, 3]: Did not change | Purity % [1, 3]: 98.5% | Color and state [1, 4]: Off-white solid | Crystal form [1, 4]: Did not change | Purity % [1, 4]: 97.0% | Color and state ([1]; 60° C., 5 days, open container): Off-white solid | Crystal form ([1]; 60° C., 5 days, open container): Did not change | Purity % ([1]; 60° C., 5 days, open container): 99.1% | Color and state [1, 5]: Off-white solid | Crystal form [1, 5]: Did not change | Purity % [1, 5]: 98.5% | Color and state [1, 6]: Off-white solid | Crystal form [1, 6]: Did not change | Purity % [1, 6]: 97.0% | Color and state ([1]; 75% RH, 5 days, open container): Off-white solid | Crystal form ([1]; 75% RH, 5 days, open container): Did not change | Purity % ([1]; 75% RH, 5 days, open container): 99.8% | Color and state [1, 7]: Off-white solid | Crystal form [1, 7]: Did not change | Purity % [1, 7]: 99.7% | Color and state [1, 8]: Off-white solid | Crystal form [1, 8]: Did not change | Purity % [1, 8]: 99.7% | Color and state [1, 9]: Off-white solid | Crystal form [1, 9]: Did not change | Purity % [1, 9]: 99.8% | Color and state [1, 10]: Off-white solid | Crystal form [1, 10]: Did not change | Purity % [1, 10]: 99.7% | Color and state [1, 11]: Off-white solid | Crystal form [1, 11]: Did not change | Purity % [1, 11]: 99.7% | Color and state ([1]; Initial, 0 days): Off-white solid | Crystal form ([1]; Initial, 0 days): Crystal form K | Purity % ([1]; Initial, 0 days): 99.8% | Physical and chemical properties (conclusion of influencing factor experiments) [1]: good physical and chemical properties | Color and state [1, 12]: Off-white solid | Crystal form [1, 12]: Did not change | Purity % [1, 12]: 99.3% | Color and state [1, 13]: Off-white solid | Crystal form [1, 13]: Did not change | Purity % [1, 13]: 98.9% | Color and state [1, 14]: Off-white solid | Crystal form [1, 14]: Did not change | Purity % [1, 14]: 97.9% | Purity % 1 month ([2]; 25° C./60% RH): 99.7% | Purity % 2 months ([2]; 25° C./60% RH): 99.8% | Purity % 6 months ([2]; 25° C./60% RH): 99.7% | Purity % Initial ([2]; 25° C./60% RH): 99.8% | Purity % 1 month ([2]; 40° C./75% RH): 99.7% | Purity % 2 months ([2]; 40° C./75% RH): 99.7% | Purity % 6 months ([2]; 40° C./75% RH): 99.4% | Purity % Initial ([2]; 40° C./75% RH): 99.8%

CCc1c(F)ccc2cc(O)cc(-c3nc4c5c(nc(OC[C@@]67CCCN6C[C@H](F)C7)nc5c3F)N3C[C@H]5CC[C@H](N5)[C@H]3CO4)c12 [Crystal form B, 5-Ethyl-6-fluoro-4-((5aS,6S,9R)-1-fluoro-12-(((2R,7aS)-2-fluorotetrahydro-1H-pyrrolizin-7a(5H)-yl)methoxy)-5a,6,7,8,9,10-hexahydro-5H-4-oxa-3,10a,11,13,14-pentaaza-6,9-methanonaphtho[1,8-ab]heptalen-2-yl)naphthalen-2-ol]
Color and state ([1]; 40° C., 5 days, open container): Off-white solid | Crystal form ([1]; 40° C., 5 days, open container): Did not change | Purity % ([1]; 40° C., 5 days, open container): 99.3% | Color and state [1, 3]: Off-white solid | Crystal form [1, 3]: Did not change | Purity % [1, 3]: 99.3% | Color and state [1, 4]: Off-white solid | Crystal form [1, 4]: Did not change | Purity % [1, 4]: 99.2% | Color and state ([1]; 60° C., 5 days, open container): Off-white solid | Crystal form ([1]; 60° C., 5 days, open container): Did not change | Purity % ([1]; 60° C., 5 days, open container): 99.3% | Color and state [1, 5]: Off-white solid | Crystal form [1, 5]: Did not change | Purity % [1, 5]: 99.2% | Color and state [1, 6]: Off-white solid | Crystal form [1, 6]: Did not change | Purity % [1, 6]: 99.1% | Color and state ([1]; 75% RH, 5 days, open container): Off-white solid | Crystal form ([1]; 75% RH, 5 days, open container): Did not change | Purity % ([1]; 75% RH, 5 days, open container): 99.3% | Color and state [1, 7]: Off-white solid | Crystal form [1, 7]: Did not change | Purity % [1, 7]: 99.4% | Color and state [1, 8]: Off-white solid | Crystal form [1, 8]: Did not change | Purity % [1, 8]: 99.3% | Color and state [1, 9]: Off-white solid | Crystal form [1, 9]: Did not change | Purity % [1, 9]: 99.4% | Color and state [1, 10]: Off-white solid | Crystal form [1, 10]: Did not change | Purity % [1, 10]: 99.4% | Color and state [1, 11]: Off-white solid | Crystal form [1, 11]: Did not change | Purity % [1, 11]: 99.4% | Color and state ([1]; Initial, 0 days): Off-white solid | Purity % ([1]; Initial, 0 days): 99.4% | Physical and chemical properties (conclusion of influencing factor experiments) [1]: good physical and chemical properties | Color and state [1, 12]: Off-white solid | Crystal form [1, 12]: Did not change | Purity % [1, 12]: 99.0% | Color and state [1, 13]: Off-white solid | Crystal form [1, 13]: Did not change | Purity % [1, 13]: 99.1% | Color and state [1, 14]: Pale yellow solid | Crystal form [1, 14]: Did not change | Purity % [1, 14]: 97.6% | Purity % 1 month ([2]; 25° C./60% RH): 99.4% | Purity % 3 months ([2]; 25° C./60% RH): 99.3% | Purity % 6 months ([2]; 25° C./60% RH): 99.3% | Purity % Initial ([2]; 25° C./60% RH): 99.4% | Purity % 1 month ([2]; 40° C./75% RH): 99.3% | Purity % 3 months ([2]; 40° C./75% RH): 99.2% | Purity % 6 months ([2]; 40° C./75% RH): 99.1% | Purity % Initial ([2]; 40° C./75% RH): 99.4%

— patent publication US20260209250A1, “CRYSTAL FORM OF KRAS G12D INHIBITOR AND PREPARATION METHOD THEREFOR” (priority 2022, published 2026)
